From patent publication US20100093811A1 (priority 2007, published 2010) come the findings set out here.

In assay [1] the test system is acute HIV infection of T-lymphoid cells. Briefly: Assay for inhibition of HIV replication (spread assay). The class given is cell-based, HIV-1. Conditions: Human immunodeficiency virus 1, T-lymphoid; read-out: Spread - IC95. On the procedure:
• Assay for Inhibition of HIV Replication
Assays for the inhibition of acute HIV infection of T-lymphoid cells were conducted in accordance with Vacca, J. P. et al., Proc. Natl. Acad. Sci. USA 1994, 91: 4096.

The target in a further assay is wild-type HIV-1 protease (Human immunodeficiency virus type 1 group M subtype B, UniProt P04585). Briefly: Assay for inhibition of microbial expressed HIV protease. Format: biochemical. The essentials:
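E. coli-expressed protease (5 pM) preincubated with inhibitor 30 min at room temperature in 50 mM sodium acetate pH 5.5, 100 mM NaCl, 0.1% BSA. Substrate Val-Ser-Gln-Asn-(betanapthyl)Ala-Pro-Ile-Val at 440 micromolar, 1 h at 30° C; acid-quenched, product peak area by C18 HPLC gives inhibition.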

The mark [2] stands for this setting: wild-type HIV-1 protease expressed in E. coli, peptide substrate, pH 5.5, read-out: Enzyme Inhibition - IC50.

Structures can show the parent of a compound that is named as a salt. Where two headings read alike, the source gives them in different places.

With `CC(C)CCN([C@H](CO)CCC[C@@H](NC(=O)[C@@H](N)C(c1ccc(F)cc1)c1ccc(F)cc1)C1CC1)S(=O)(=O)c1ccc([C@H](C)O)cc1` [Example J18, N-{(1R,5S)-1-cyclopropyl-6-hydroxy-5-[({4-[(1S)-1-hydroxyethyl]phenyl}sulfonyl)(3-methylbutyl)amino]hexyl}-4-fluoro-β-(4-fluorophenyl)-L-phenylalaninamide hydrochloride], in assay [1], the IC95 came to 8 nM. At wild-type HIV-1 protease, this compound showed an IC50 of 0.01 nM.

For the compound `CC[C@@H](CCC[C@@H](CO)N(CCCF)S(=O)(=O)c1ccc(N)cc1)NC(=O)[C@@H](NC(=O)OC)C(c1ccccc1)c1ccccc1` [Example D15, N-{(1S,5S)-5-[[(4-aminophenyl)sulfonyl](3-fluoropropyl)amino]-1-ethyl-6-hydroxyhexyl}-Nα-(methoxycarbonyl)-β-phenyl-L-phenylalaninamide], in assay [1], the IC95 was 39 nM. Also, the IC50 on wild-type HIV-1 protease (setting [2]) was 0.268 nM.

As for `COC(=O)N[C@H](C(=O)N[C@@H](C)CCC[C@@H](CO)N(CC1CC1)S(=O)(=O)c1ccc(N)cc1)C(c1ccccc1)c1ccccc1` [Example G7, N-{(1S,5S)-5-[[(4-aminophenyl)sulfonyl](cyclopropylmethyl)amino]-6-hydroxy-1-methylhexyl}-Nα-(methoxycarbonyl)-β-phenyl-L-phenylalaninamide], the IC95 in assay [1] was 15 nM. The IC50 at wild-type HIV-1 protease (setting [2]) amounted to 0.024 nM.

In the case of `COC(=O)N[C@@H](Cc1ccccc1Br)C(=O)N[C@@H](C)CCC[C@@H](CO)N(C(C)C)S(=O)(=O)c1ccc(N)cc1` [Example G15, N-{(1S,SS)-5-[[(4-aminophenyl)sulfonyl](isopropyl)amino]-6-hydroxy-1-methylhexyl}-2-bromo-Nα-(methoxycarbonyl)-L-phenylalaninamide], the 95% effect concentration (IC95) in assay [1] was found to be 77 nM. In addition, the IC50 on wild-type HIV-1 protease (setting [2]) was 0.584 nM.

For the compound `COC(=O)N[C@H](C(=O)N[C@H](CCC[C@@H](CO)N(CCC(C)C)S(=O)(=O)c1ccc(N)cc1)C(F)(F)F)C(c1ccccc1)c1ccccc1` [Example H2, N-[(1R,5S)-5-[[(4-aminophenyl)sulfonyl](3-methylbutyl)amino]-6-hydroxy-1-(trifluoromethyl)hexyl]-Nα-(methoxycarbonyl)-β-phenyl-L-phenylalaninamide], the IC95 in assay [1] stood at 4 nM. In addition, at wild-type HIV-1 protease, the IC50 worked out at 0.01 nM.

On to `COC(=O)N[C@H](C(=O)N[C@@H](C)CCC[C@@H](CO)N(CCCF)S(=O)(=O)c1ccc(N)cc1)C(c1ccccc1)c1ccccc1` [Example F4, N-{(1S,5S)-5-[[(4-aminophenyl)sulfonyl](3-fluoropropyl)amino]-6-hydroxy-1-methylhexyl}-Nα-(methoxycarbonyl)-β-phenyl-L-phenylalaninamide], for which, in assay [1], the concentration for an effect of 95% (IC95) was 65 nM. Further, the IC50 at wild-type HIV-1 protease (setting [2]) worked out at 0.055 nM.

With `COC(=O)N[C@H](C(=O)N[C@@H](CCC[C@@H](CO)N(CCC(C)C)S(=O)(=O)c1ccc(CO)cc1)C(F)(F)F)C(c1ccccc1)c1ccccc1` [Example J7, N-[(1S,5S)-6-hydroxy-5-[{[4-(hydroxymethyl)phenyl]sulfonyl}(3-methylbutyl)amino]-1-(trifluoromethyl)hexyl]-Nα-(methoxycarbonyl)-β-phenyl-L-phenylalaninamide], the 95% effect concentration (IC95) in assay [1] is 359 nM. Moreover, the half-inhibitory concentration (IC50) on wild-type HIV-1 protease (setting [2]) amounted to 0.623 nM.

Take `COC(=O)N[C@H](C(=O)NCCCC[C@@H](CN)N(CCC(C)C)S(=O)(=O)c1ccc(N)cc1)C(c1ccccc1)c1ccccc1` [Example A2, Methyl [(1S)-2-({6-amino-5-[[(4-aminophenyl)sulfonyl](3-methylbutyl)amino]-hexyl)amino)-1-(diphenylmethyl)-2-oxoethyl]carbamate]: the IC95 in assay [1] was found to be 252 nM. The IC50 at wild-type HIV-1 protease (setting [2]) was 5 nM.

In the case of `COC(=O)N[C@H](C(=O)N[C@H](CCC[C@@H](CO)N(CC(C)C)S(=O)(=O)c1ccc(N)cc1)C(C)C)C(c1ccccc1)c1ccccc1` [Example D14, N-{(1R,5S)-5-[[(4-aminophenyl)sulfonyl](isobutyl)amino]-6-hydroxy-1-isopropylhexyl}-Nα-(methoxycarbonyl)-β-phenyl-L-phenylalaninamide], in assay [1], the IC95 is 95 nM. On wild-type HIV-1 protease (setting [2]), the IC50 stood at 0.519 nM.

On to `CCCN([C@H](CO)CCC[C@@H](NC(=O)[C@@H](NC(=O)OC)C(c1ccccc1)c1ccccc1)C1CC1)S(=O)(=O)c1ccc(N)cc1` [Example I7, N-{(1R,5S)-5-[[(4-aminophenyl)sulfonyl](propyl)amino]-1-cyclopropyl-6-hydroxyhexyl}-Nα-(methoxycarbonyl)-β-phenyl-L-phenylalaninamide], for which the IC95 in assay [1] is 43 nM. Besides, at wild-type HIV-1 protease (setting [2]), the IC50 was 0.206 nM.

In the case of `CC(C)N([C@H](CO)CCCC(C)(C)NC(=O)[C@@H](N)Cc1ccccc1Cl)S(=O)(=O)c1ccc(N)cc1` [Example L10, N-{(5S)-5-[[(4-aminophenyl)sulfonyl](isopropyl)amino]-6-hydroxy-1,1-dimethylhexyl}-2-chloro-L-phenylalaninamide hydrochloride], the 95% effect concentration (IC95) in assay [1] came out at 241 nM. On wild-type HIV-1 protease, inhibition was half-maximal at 3.2 nM (IC50).

For the compound `CCN([C@H](CO)CCC[C@@H](NC(=O)[C@@H](NC(=O)OC)C(c1ccccc1)c1ccccc1)C1CC1)S(=O)(=O)c1ccc(N)cc1` [Example I10, N-{(1R,5S)-5-[[(4-aminophenyl)sulfonyl](ethyl)amino]-1-cyclopropyl-6-hydroxyhexyl}-Nα-(methoxycarbonyl)-β-phenyl-L-phenylalaninamide], the IC95 in assay [1] amounted to 105 nM. In addition, at wild-type HIV-1 protease (setting [2]), the IC50 stood at 0.733 nM.

With `COC(=O)N[C@H](C(=O)N[C@H](CCC[C@@H](CO)N(CCC(C)C)S(=O)(=O)c1ccc(N)cc1)C1CC1)C(c1ccc(F)cc1)c1ccc(F)cc1` [Example E7, N-{(1R,5S)-5-[[(4-aminophenyl)sulfonyl](3-methylbutyl)amino]-1-cyclopropyl-6-hydroxyhexyl}-4-fluoro-β-(4-fluorophenyl)-Nα-(methoxycarbonyl)-L-phenylalaninamide], in assay [1], the IC95 was 39 nM. Also, at wild-type HIV-1 protease (setting [2]), the IC50 was determined as 0.066 nM.

As to `COC(=O)N[C@@H](Cc1ccccc1Cl)C(=O)N[C@H](CCC[C@@H](CO)N(CCC(C)C)S(=O)(=O)c1ccc(CO)cc1)C1CC1` [Example J14, 2-chloro-N-{(1R,5S)-1-cyclopropyl-6-hydroxy-5-[{[4-(hydroxymethyl)phenyl]sulfonyl}(3-methylbutyl)amino]hexyl}-Nα-(methoxycarbonyl)-L-phenylalaninamide], the IC95 in assay [1] was found to be 63 nM. Moreover, the IC50 at wild-type HIV-1 protease (setting [2]) turned out to be 0.183 nM.

As for `CC[C@@H](CCC[C@@H](CO)N(CC(C)C)S(=O)(=O)c1ccc(CO)cc1)NC(=O)[C@@H](NC(=O)OC)C(c1ccccc1)c1ccccc1` [Example J19, N-{(1S,5S)-1-ethyl-6-hydroxy-5-[{[4-(hydroxymethyl)phenyl]sulfonyl}(isobutyl)amino]hexyl]-Nα-(methoxycarbonyl)-β-phenyl-L-phenylalaninamide], in assay [1], the IC95 worked out at 11 nM. Besides, on wild-type HIV-1 protease (setting [2]), the concentration for half-maximal inhibition (IC50) was determined as 0.034 nM.

With `COC(=O)N[C@@H](Cc1cccc(Cl)c1Cl)C(=O)N[C@@H](C)CCC[C@@H](CO)N(C(C)C)S(=O)(=O)c1ccc(N)cc1` [Example F16, N-{(1S,5S)-5-[[(4-aminophenyl)sulfonyl](isopropyl)amino]-6-hydroxy-1-methylhexyl}-2,3-dichloro-Nα-(methoxycarbonyl)-L-phenylalaninamide], in assay [1], the IC95 turned out to be 58 nM. At wild-type HIV-1 protease, this compound registered an IC50 of 0.128 nM.

As a reminder, the IC95 is the concentration at which the effect reaches the 95% level. The term IC50 denotes the midpoint of a concentration-inhibition curve.
